52 substances from patent US20260008818A1, “CYCLIC PEPTIDE OR SALT THEREOF, AND USES THEREOF” (FUJIFILM Corporation, priority 2023, published 2026) can be followed below.

Bridge positions count the residues as written; N and C are the ends. Ends that are not written are not given here. COCH2 = acetyl group that carries the bridge

This test has as its system Recombinant Human FGFR1 alpha (IIIc) Fc Chimera Protein. The experiment in a line: Binding affinity of enzymatically synthesized cyclic peptide to FGFR by ELISA. To be noted: luminescence signal at reaction concentration 10 nmol/L, SEQ ID NO: 39 standardized to 1, enzyme synthesis product. The method, boiled down:
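Plate-immobilized FGFR1α(IIIc)-Fc (5 ng/well) incubated with Myc-tagged cyclic peptide 3 h at room temperature; bound peptide detected with anti-Myc antibody (2 h) and chemiluminescence. Signal is FGFR minus no-FGFR wells, normalized to SEQ ID NO: 39 at 10 nmol/L and graded A–D.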
On to “341 (ACLPFLRIIIAGHWAPFLAK(COCH2)H; thioether 2-20) [compound 341]”, for which the “Evaluation result of binding affinity to FGFR” value (from here on “Evaluation result”) is “C (0.1 or more and less than 0.5)”.

In the case of “236 (HK(COCH2)TWERLIFQGHIAPFWVCR; thioether 2-19 (inferred)) [compound 236]”, the “Evaluation result” value was “A (0.7 or more)”.

For the substance “84 (HCLYERLQFHGHEAPFRVKV; not fully specified; Description of Artificial Sequence: Cyclic peptide) [compound 84]”, the “Evaluation result” value was “A (0.7 or more)”.

On to “302 (HCSYERLQMHGHEAPFRVK(COCH2)V; thioether 2-19 (inferred)) [compound 302]”, for which the “Evaluation result” value is “B (0.5 or more and less than 0.7)”.

Take “257 (VCPLTLQGWQAPFWVVK(COCH2)E; thioether 2-17 (inferred)) [compound 257]”: the “Evaluation result” value was “C (0.1 or more and less than 0.5)”.

“344 (RCQPFVQLVFRSLLAPFLVK(COCH2)H; thioether 2-20) [compound 344]”: the “Evaluation result” value is “C (0.1 or more and less than 0.5)”.

As for “265 (FCQFETLKFFGWEAPYLVK(COCH2)L; thioether 2-19 (inferred)) [compound 265]”, the “Evaluation result” value is “C (0.1 or more and less than 0.5)”.

“209 (HCSYERLQFHGHEAPFRHK(COCH2)V; thioether 2-19 via Ac; not fully specified) [compound 209]”: the “Evaluation result” value is “B (0.5 or more and less than 0.7)”.

In the case of “86 (HCVYERLQFHGHEAPFRVKV; not fully specified; Description of Artificial Sequence: Cyclic peptide) [compound 86]”, the “Evaluation result” value was “A (0.7 or more)”.

As to “361 (QCPWSTTQQVPFIK(COCH2)V; thioether 2-14) [compound 361]”, the “Evaluation result” value was “C (0.1 or more and less than 0.5)”.

In the case of “144 (HCSYERHQFHGHEAPFRVK(COCH2)V; thioether 2-19 (inferred)) [compound 144]”, the “Evaluation result” value is given as “A (0.7 or more)”.

For “171 (HCSYERLQFQGHEAPFRVK(COCH2)V; thioether 2-19 (inferred)) [compound 171]”, the “Evaluation result” value is “A (0.7 or more)”.

“272 (WCHIAPFLYHDGIQWGHLK(COCH2)V; thioether 2-19 (inferred)) [compound 272]”: the “Evaluation result” value is “B (0.5 or more and less than 0.7)”.

For the substance “105 (HCSYERLQFHFHEAPFRVK(COCH2)V; thioether 2-19 (inferred)) [compound 105]”, the “Evaluation result” value was “C (0.1 or more and less than 0.5)”.

Take “246 (PCTYRQVVVHGWYAPFISK(COCH2)V; thioether 2-19 (inferred)) [compound 246]”: the “Evaluation result” value is “C (0.1 or more and less than 0.5)”.

Consider “282 (TCQWEQLRIGPHLAPFRSK(COCH2)R; thioether 2-19 (inferred)) [compound 282]”, for which the “Evaluation result” value is “C (0.1 or more and less than 0.5)”.

For “346 (ACWLRHIYQGHQAPFLIWSTK(COCH2)S; thioether 2-21) [compound 346]”, the “Evaluation result” value is “C (0.1 or more and less than 0.5)”.

With “217 (HCSYERLQFHGHEAPFRVK(COCH2)Q; thioether 2-19 via Ac; not fully specified) [compound 217]”, the “Evaluation result” value is “A (0.7 or more)”.

As for “160 (HCSYERLQVHGHEAPFRVK(COCH2)V; thioether 2-19 (inferred)) [compound 160]”, the “Evaluation result” value is “C (0.1 or more and less than 0.5)”.

For “126 (HCSYYRLQFHGHEAPFRVK(COCH2)V; thioether 2-19 (inferred)) [compound 126]”, the “Evaluation result” value is “B (0.5 or more and less than 0.7)”.

On to “279 (YCTIQRLWLLHEAPFWVK(COCH2)T; thioether 2-18 (inferred)) [compound 279]”, for which the “Evaluation result” value was “C (0.1 or more and less than 0.5)”.

As for “315 (HCTYERLIFLGHIAPFWVK(COCH2)R; thioether 2-19 (inferred)) [compound 315]”, the “Evaluation result” value is “C (0.1 or more and less than 0.5)”.

On to “117 (HCSYERLQFHGHEADFRVK(COCH2)V; thioether 2-19 (inferred)) [compound 117]”, for which the “Evaluation result” value is “B (0.5 or more and less than 0.7)”.

Consider “138 (HCSYEVLQFHGHEAPFRVK(COCH2)V; thioether 2-19 (inferred)) [compound 138]”, for which the “Evaluation result” value was “A (0.7 or more)”.

As for “111 (HCSYERLQFHGYEAPFRVK(COCH2)V; thioether 2-19 (inferred)) [compound 111]”, the “Evaluation result” value is “C (0.1 or more and less than 0.5)”.

As for “319 (HCTWERLIFQGHIAPFWVK(COCH2)R; thioether 2-19 (inferred)) [compound 319]”, the “Evaluation result” value was “C (0.1 or more and less than 0.5)”.

As to “155 (HCSYERLEFHGHEAPFRVK(COCH2)V; thioether 2-19 (inferred)) [compound 155]”, the “Evaluation result” value is recorded as “A (0.7 or more)”.

“62 (HCSYERLQFHGHAAPFRVK(COCH2)V; thioether 2-19 (inferred)) [compound 62]”: the “Evaluation result” value was “A (0.7 or more)”.

With “131 (HCSYTRLQFHGHEAPFRVK(COCH2)V; thioether 2-19 (inferred)) [compound 131]”, the “Evaluation result” value is reported as “A (0.7 or more)”.

For the substance “225 (HCTWERLIFLGHIAPFWVK(COCH2)R; thioether 2-19 (inferred)) [compound 225]”, the “Evaluation result” value was “C (0.1 or more and less than 0.5)”.

On to “318 (HCTWERLIFRGHIAPFWVK(COCH2)R; thioether 2-19 (inferred)) [compound 318]”, for which the “Evaluation result” value was “C (0.1 or more and less than 0.5)”.

On to “42 (RCWDQLTFYGHQAPFYVK(COCH2)G; thioether 2-18 (inferred)) [compound 42]”, for which the “Evaluation result” value was “A (0.7 or more)”.

In the case of “35 (CDRTLLYYRLSC; disulfide 1-12 (inferred)) [compound 35]”, the “Evaluation result” value is “D (less than 0.1)”.

“51 (KCWQQLSFVGHIAPFVYK(COCH2)Y; thioether 2-18 (inferred)) [compound 51]”: the “Evaluation result” value is “B (0.5 or more and less than 0.7)”.

Turning to “220 (HCSYERLQFHGHEAPFRVK(COCH2)D; thioether 2-19 (inferred)) [compound 220]”, the “Evaluation result” value is “C (0.1 or more and less than 0.5)”.

As for “36 (CRALLRGAPFHLAEK(COCH2); thioether 1-15; not fully specified; printed as (C)-RALLRGAPFHLAE-(K(acetyl))) [compound 36]”, the “Evaluation result” value is listed as “D (less than 0.1)”.

Take “77 (SCSYERLQFHGHEAPFRVK(COCH2)V; thioether 2-19 (inferred)) [compound 77]”: the “Evaluation result” value is given as “A (0.7 or more)”.

On to “52 (SCYERVVLFGWQAPYWAK(COCH2)P; thioether 2-18 (inferred)) [compound 52]”, for which the “Evaluation result” value is “B (0.5 or more and less than 0.7)”.

As for “233 (HK(COCH2)TWERLVFLGHIAPFWVCR; thioether 2-19 (inferred)) [compound 233]”, the “Evaluation result” value is “B (0.5 or more and less than 0.7)”.

For the substance “44 (FCPHIFLGHNAPFLVQK(COCH2)V; thioether 2-17 (inferred)) [compound 44]”, the “Evaluation result” value is listed as “A (0.7 or more)”.

“199 (HCSYERLQFHGHEAPFSVK(COCH2)V; thioether 2-19 via Ac) [compound 199]”: the “Evaluation result” value was “B (0.5 or more and less than 0.7)”.

Regarding “280 (PCWTRVVLLHHYAPFWAK(COCH2)I; thioether 2-18 (inferred)) [compound 280]”, the “Evaluation result” value was “C (0.1 or more and less than 0.5)”.

As for “252 (LCRVVLNGWIAPFWTIK(COCH2)E; thioether 2-17 (inferred)) [compound 252]”, the “Evaluation result” value is “B (0.5 or more and less than 0.7)”.

Take “196 (HCSYERLQFHGHEAPFWVK(COCH2)V; thioether 2-19 via Ac) [compound 196]”: the “Evaluation result” value is recorded as “A (0.7 or more)”.

In the case of “250 (QCLWAQLQLLTHLAPYIVK(COCH2)I; thioether 2-19 (inferred)) [compound 250]”, the “Evaluation result” value is “C (0.1 or more and less than 0.5)”.

With “173 (HCSYERLQFTGHEAPFRVK(COCH2)V; thioether 2-19 (inferred)) [compound 173]”, the “Evaluation result” value is “C (0.1 or more and less than 0.5)”.

As for “167 (HCSYERLQFFGHEAPFRVK(COCH2)V; thioether 2-19 (inferred)) [compound 167]”, the “Evaluation result” value is on record as “A (0.7 or more)”.

Turning to “243 (LCRYVKLRVGLHIAPFLIK(COCH2)S; thioether 2-19 (inferred)) [compound 243]”, the “Evaluation result” value is “C (0.1 or more and less than 0.5)”.

With “100 (HCSFERLQFHGHEAPFRVK(COCH2)V; thioether 2-19 (inferred)) [compound 100]”, the “Evaluation result” value is reported as “A (0.7 or more)”.

In the case of “132 (HCSYDRLQFHGHEAPFRVK(COCH2)V; thioether 2-19 (inferred)) [compound 132]”, the “Evaluation result” value is “B (0.5 or more and less than 0.7)”.

As for “55 (HCASYERLQFHGHEAPFRVK(COCH2)V; thioether 2-20 (inferred)) [compound 55]”, the “Evaluation result” value was “C (0.1 or more and less than 0.5)”.

For “103 (HCSTERLQFHGHEAPFRVK(COCH2)V; thioether 2-19 (inferred)) [compound 103]”, the “Evaluation result” value is “A (0.7 or more)”.
